Data from patent publication US20250171432A1, “COMPOUNDS AND METHODS OF USE” (Tango Therapeutics, Inc., priority 2022, published 2025).
Like-named read-outs stand apart in the source and are kept apart here.

What was measured:
Format in all cases: cell-based
[1] = tested on: SDMA (PRMT5 activity) in HAP1 MTAP-intact cell line; test: SDMA in-cell western assay, HAP1 MTAP-intact
Protocol: (§1) The SAM-cooperative PRMT5 inhibitor, GSK3326595, was sourced from SelleckChem and maintained as a 10 mM DMSO stock. All test compounds are maintained as 10 mM DMSO stocks
(§2) On Day 0, MTAP-intact or MTAP-deleted cells are seeded in a 384-well plate, and incubated in a humidified, 5% CO2 tissue culture incubator for 16-24 hours. On Day 1, the test compounds are dispensed to wells at defined concentrations using a Tecan D300e digital dispenser (n=4), and the volume of DMSO is normalized to highest class volume. Each plate includes wells dosed with defined concentrations of GSK33226595 as a plate control. The compounds are incubated with cells for 24 hours in a humidified, 5% CO2 tissue culture incubator.
(§3) On Day 2, the compound-treated cells are fixed with a final concentration of 4% formaldehyde. The cells are then washed/permeabilized with 1×PBS+0.1% Triton X-100, and then blocked with 5% goat serum/1×TBS.
(§4) The cells are washed with 1×PBS+0.1% Triton X-100, and then washed again with ddH20. The plates are then imaged using a NIR fluorescent imager (LiCor Odyssey).
(§5) For data analysis, the SDMA signal is normalized to the DRAQ5 signal. Assay background is determined by the signal from wells treated with 1 μM GSK3326595, and subtracted from every well. The data are plotted as % of the DMSO control wells for the MTAP-intact and the MTAP-deleted cell lines independently, and fitted to the 4-parameter logistic (4-PL) Hill equation with maximal effect constrained to 0. The fit was performed using GraphPad Prism or the default IC50 fitting procedure in Dotmatics Studies 5.4 as part of a customized data analysis protocol.

[2] = tested on: SDMA (PRMT5 activity) in HAP1 MTAP-deleted cell line; test: SDMA in-cell western assay, HAP1 MTAP-deleted
Protocol: as §1, §2, §3, §4, §5

[3] = tested on: HAP1 MTAP-deleted cell line; test: Viability assay (CellTiter-Glo), HAP1 MTAP-deleted; conditions: HAP1 MTAP-deleted cells, 7 days
Protocol: All test compounds are maintained as 10 mM DMSO stocks.
On Day 0, MTAP-intact and MTAP-deleted cells are seeded in a 96-well plate, and incubated in a humidified, 5 or 10% CO2 tissue culture incubator for 16-24 hours. On Day 1, the test compounds are dispensed to wells at defined concentrations using a Tecan D300e digital dispenser (n=3), and the volume of DMSO is normalized to highest class volume (0.2%). The compound-treated plates are incubated for 7 days in a humidified, 5 or 10% CO2 tissue culture incubator.
On Day 7, the plates are removed from the tissue culture incubator and allowed to equilibrate to room temperature. Then either a ½% volume CellTiter-Glo Luminescent Cell Viability Assay reagent (Promega G7572) is added to each well, or the media is removed from every well and a 1:3 dilution of CellTiter-Glo 2.0 Cell Viability Assay reagent (Promega G9241) in 1×PBS is added. Ten minutes after addition, the luminescent signal is detected by an Envision plate reader. The data are plotted as % of the DMSO control wells for the MTAP-intact and the MTAP-deleted cell lines independently, and fitted to the 4-parameter logistic (4-PL) Hill equation with maximal effect constrained to 0. The fit was performed using GraphPad Prism or the default IC50 fitting procedure in Dotmatics Studies 5.4 as part of a customized data analysis protocol.

[4] = Homo sapiens, HAP1, 24 h, SDMA in-cell western, HAP1 MTAP-intact cells, 24 hours compound incubation
[5] = Homo sapiens, SDMA in-cell western, HAP1 MTAP-deleted cells, 24 hours compound incubation
[6] = ratio of SDMA IC50 in HAP1 MTAP-intact to HAP1 MTAP-deleted cell line
[7] = SDMA in-cell western, HAP1 MTAP-deleted cells, 24 hours compound incubation

Compound | IC50 [1, 4] | IC50 [2, 5] | IC90 [2, 5] | Hap1 MTAP intact/deleted ratio [2, 6] | IC50 ([3]; Homo sapiens, 168 h) | IC50 [1] | Hap1 MTAP intact/deleted ratio [2] | IC50 [2] | IC90 [2] | IC50 ([1]; SDMA in-cell western, HAP1 MTAP-intact cells, 24 hours compound incubation) | IC50 [2, 7] | IC90 [2, 7] | IC50 [3]
COc1ncc(NC(=O)C(=O)N2C[C@@H](C)CC[C@@H]2c2ccc3sc([C@H]4C[C@H](N(C)C)C4)nc3c2)cc1C(N)=O (single isomer, unassigned) [Compound 50] | > 50 nM | < 5 nM | < 75 nM | A (“A” indicates an IC50 ratio greater than or equal to 30 fold) | < 100 nM | – | – | – | – | – | – | – | –
CCc1cc(NC(=O)C(=O)N2C[C@@H](C)CC[C@@H]2c2ccc3sc(C4=CCN(C)CC4)nc3c2)cnc1N [Compound 28, N-(6-amino-5-ethylpyridin-3-yl)-2-((2R,5S)-5-methyl-2-(2-(1-methyl-1,2,3,6-tetrahydropyridin-4-yl)benzo[d]thiazol-5-yl)piperidin-1-yl)-2-oxoacetamide] | 5 to 50 nM | < 5 nM | < 75 nM | A (“A” indicates an IC50 ratio greater than or equal to 30 fold) | < 100 nM | – | – | – | – | – | – | – | –
Cc1cc2cc(C(=O)N3C[C@@H](C)CC[C@@H]3c3ccc4sc(C5CCN(C)CC5)nc4c3)ccc2nc1N [Compound 59, (2-amino-3-methylquinolin-6-yl)((2R,5S)-5-methyl-2-(2-(1-methylpiperidin-4-yl)benzo[d]thiazol-5-yl)piperidin-1-yl)methanone] | – | – | – | – | < 100 nM | > 50 nM | A (key: “A” indicates an IC50 ratio greater than or equal to 30 fold; “B” indicates an IC50 ratio greater than or equal to 15 fold but lower than 30 fold; “C” indicates an IC50 ratio of less than 15 fold) | < 5 nM | < 75 nM | – | – | – | –
COc1ncc(NC(=O)C(=O)N2C[C@@H](C)CC[C@@H]2c2ccc3cn([C@@H]4CCN(C)C4)nc3c2)cc1C(N)=O [Compound 102, 2-methoxy-5-(2-((2R,5S)-5-methyl-2-(2-((R)-1-methylpyrrolidin-3-yl)-2H-indazol-6-yl)piperidin-1-yl)-2-oxoacetamido)nicotinamide] | > 50 nM | < 5 nM | < 75 nM | A (“A” indicates an IC50 ratio greater than or equal to 30 fold) | < 100 nM | – | – | – | – | – | – | – | –
COc1ncc(NC(=O)C(=O)N2C[C@@H](C)CC[C@@H]2c2ccc3sc([C@H]4CCN(C)C[C@@H]4OC)nc3c2)cc1C(N)=O (single isomer, unassigned) [Compound 35] | > 50 nM | < 5 nM | < 75 nM | A (“A” indicates an IC50 ratio greater than or equal to 30 fold) | < 100 nM | – | – | – | – | – | – | – | –
COc1ncc(NC(=O)C(=O)N2C[C@@H](C)CC[C@@H]2c2ccc3sc(C4CCN(C)C4(C)C)nc3c2)cc1C(N)=O (mixture of isomers) [Compound 87, 2-methoxy-5-(2-((2R,5S)-5-methyl-2-(2-(rac-(S)-1,2,2-trimethylpyrrolidin-3-yl)benzo[d]thiazol-5-yl)piperidin-1-yl)-2-oxoacetamido)nicotinamide] | > 50 nM | < 5 nM | < 75 nM | A (“A” indicates an IC50 ratio greater than or equal to 30 fold) | < 100 nM | – | – | – | – | – | – | – | –
COc1ncc(NC(=O)C(=O)N2C[C@@H](C)CC[C@@H]2c2ccc3sc([C@@H]4CN(C)CC4(C)C)nc3c2)cc1C(N)=O (single isomer, unassigned) [Compound 74] | 5 to 50 nM | < 5 nM | < 75 nM | B (“B” indicates an IC50 ratio greater than or equal to 15 fold but lower than 30 fold) | < 100 nM | – | – | – | – | – | – | – | –
CCc1cc(NC(=O)C(=O)N2C[C@@H](C)CC[C@@H]2c2ccc3ccc(C#N)nc3c2)cnc1N [Compound 32, N-(6-amino-5-ethylpyridin-3-yl)-2-((2R,5S)-2-(2-cyanoquinolin-7-yl)-5-methylpiperidin-1-yl)-2-oxoacetamide] | > 50 nM | 5 to 50 nM | > 125 nM | A (“A” indicates an IC50 ratio greater than or equal to 30 fold) | 100 to 1000 nM | – | – | – | – | – | – | – | –
CCc1cc(NC(=O)C(=O)N2C[C@@H](C)CC[C@@H]2c2ccc3cn([C@@H]4C[C@@H](C)CN(C)C4)nc3c2)cnc1N (relative stereo) [Compound 60, N-(6-amino-5-ethylpyridin-3-yl)-2-((2R,5S)-2-(2-(1,5-dimethylpiperidin-3-yl)-2H-indazol-6-yl)-5-methylpiperidin-1-yl)-2-oxoacetamide] | > 50 nM | < 5 nM | < 75 nM | A (“A” indicates an IC50 ratio greater than or equal to 30 fold) | < 100 nM | – | – | – | – | – | – | – | –
CCc1cc(NC(=O)C(=O)N2C[C@@H](C)CC[C@@H]2c2ccc3cn(C4CCN(C)C(C)(C)C4)nc3c2)cnc1N (stereo partly drawn) [Compound 109, N-(6-amino-5-ethyl-3-pyridyl)-2-oxo-2-[(2R,5S)-5-methyl-2-[2-(1,2,2-trimethyl-4-piperidyl)indazol-6-yl]-1-piperidyl]acetamide] | 5 to 50 nM | < 5 nM | < 75 nM | B (“B” indicates an IC50 ratio greater than or equal to 15 fold but lower than 30 fold) | < 100 nM | – | – | – | – | – | – | – | –
CCc1cc(NC(=O)C(=O)N2C[C@@H](C)CC[C@@H]2c2ccc3sc([C@@H]4CN(C)C[C@H]4C)nc3c2)cnc1N (mixture of isomers) [Compound 10, N-(6-amino-5-ethylpyridin-3-yl)-2-((2R,5S)-2-(2-(rac-(3S,4S)-1,4-dimethylpyrrolidin-3-yl)benzo[d]thiazol-5-yl)-5-methylpiperidin-1-yl)-2-oxoacetamide] | > 50 nM | < 5 nM | < 75 nM | A (“A” indicates an IC50 ratio greater than or equal to 30 fold) | < 100 nM | – | – | – | – | – | – | – | –
CCc1cc(NC(=O)C(=O)N2C[C@@H](C)CC[C@@H]2c2ccc3sc([C@@H]4CN(C)CC(C)(C)C4)nc3c2)cnc1N (single isomer, unassigned) [Compound 105] | > 50 nM | < 5 nM | < 75 nM | A (“A” indicates an IC50 ratio greater than or equal to 30 fold) | < 100 nM | – | – | – | – | – | – | – | –
CCc1cc(NC(=O)C(=O)N2C[C@@H](C)CC[C@@H]2c2ccc3cn(C4CN(C)CC(C)(C)C4)nc3c2)cnc1N (single isomer, unassigned) [Compound 114] | – | – | – | B (“B” indicates an IC50 ratio greater than or equal to 15 fold but lower than 30 fold) | – | – | – | – | – | 5 to 50 nM | < 5 nM | < 75 nM | < 100 nM
COc1ncc(NC(=O)C(=O)N2C[C@@H](C)CC[C@@H]2c2ccc3sc([C@H]4CN(C)CC4(C)C)nc3c2)cc1C(N)=O (single isomer, unassigned) [Compound 36] | > 50 nM | < 5 nM | < 75 nM | A (“A” indicates an IC50 ratio greater than or equal to 30 fold) | < 100 nM | – | – | – | – | – | – | – | –
COc1ncc(NC(=O)C(=O)N2C[C@@H](C)CC[C@@H]2c2ccc3sc(C45CC(N(C)C)(C4)C5)nc3c2)cc1C(N)=O [Compound 86] | > 50 nM | 5 to 50 nM | > 125 nM | A (“A” indicates an IC50 ratio greater than or equal to 30 fold) | < 100 nM | – | – | – | – | – | – | – | –
COc1ncc(NC(=O)C(=O)N2C[C@@H](C)CC[C@@H]2c2cccc(OC[C@@H](C)N(C)C)c2)cc1C(N)=O [Compound 49, 5-(2-((2R,5S)-2-(3-((R)-2-(dimethylamino)propoxy)phenyl)-5-methylpiperidin-1-yl)-2-oxoacetamido)-2-methoxynicotinamide] | > 50 nM | < 5 nM | < 75 nM | A (“A” indicates an IC50 ratio greater than or equal to 30 fold) | 100 to 1000 nM | – | – | – | – | – | – | – | –
